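All cell lines were grown in 96-well plates and treated with compound for 48 hours. Abbreviation: GI50, concentration required for 50% inhibition of growth.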 Active and inactive are the calls of the source. Cut-off read from the data, not from the text of the source: active = GI50 up to about 1.1 µM and inactive = higher.
Columns and labels:
Assay in all cases: inhibition of tumour cell growth, NCI panel, 48 h
ACHN = tested on: ACHN
BT-549 = tested on: BT-549
COLO 205 = tested on: COLO 205
HL-60 = tested on: HL-60
HOP-62 = tested on: HOP-62
HT-29 = tested on: HT-29
K562 = tested on: K562
MDA-MB-231 = tested on: MDA-MB-231
MDA-MB-435 = tested on: MDA-MB-435
MOLT-4 = tested on: MOLT-4
NCI-H522 = tested on: NCI-H522
NCI/ADR-RES = tested on: NCI/ADR-RES
OVCAR-8 = tested on: OVCAR-8
SF-295 = tested on: SF-295
SF-539 = tested on: SF-539
SK-OV-3 = tested on: SK-OV-3
SR = tested on: SR
TK-10 = tested on: TK-10
UACC-257 = tested on: UACC-257
RXF 393 = tested on: RXF 393

Compound | GI50 (ACHN) | GI50 (BT-549) | GI50 (COLO 205) | GI50 (HL-60) | GI50 (HOP-62) | GI50 (HT-29) | GI50 (K562) | GI50 (MDA-MB-231) | GI50 (MDA-MB-435) | GI50 (MOLT-4) | GI50 (NCI-H522) | GI50 (NCI/ADR-RES) | GI50 (OVCAR-8) | GI50 (SF-295) | GI50 (SF-539) | GI50 (SK-OV-3) | GI50 (SR) | GI50 (TK-10) | GI50 (UACC-257) | GI50 (RXF 393)
OC1(c2ccc(Cl)cc2)c2ccccc2C2=NCc3ccccc3CN21 (stereo not given) | 4.45 µM (inactive) | 18.6 µM (inactive) | 4.9 µM (inactive) | 4.94 µM (inactive) | 6.47 µM (inactive) | 14.7 µM (inactive) | 2.68 µM (inactive) | 16.6 µM (inactive) | 7.45 µM (inactive) | 3.37 µM (inactive) | 14.1 µM (inactive) | 13.1 µM (inactive) | 9.55 µM (inactive) | 15.3 µM (inactive) | 7.13 µM (inactive) | 1.22 µM (inactive) | 8.53 µM (inactive) | 14.6 µM (inactive) | 14.3 µM (inactive) | 
CC1=NN(c2ccccc2)C(=O)/C1=C1\SC(c2ccccc2)(c2ccccc2)c2ccccc21 | > 100 µM (inactive) | > 100 µM (inactive) | > 100 µM (inactive) | > 100 µM (inactive) | > 100 µM (inactive) | 67.9 µM (inactive) | > 100 µM (inactive) | > 100 µM (inactive) | > 100 µM (inactive) | > 100 µM (inactive) | > 100 µM (inactive) | > 100 µM (inactive) | > 100 µM (inactive) | > 100 µM (inactive) | > 100 µM (inactive) | > 100 µM (inactive) |  | > 100 µM (inactive) | > 100 µM (inactive) | > 100 µM (inactive)
O=C(NC1=NC2C=CC([N+](=O)[O-])=CC2S1)C(=O)Nn1c(S)nc2ccccc2c1=O (stereo not given) | 24.1 µM (inactive) | 65.8 µM (inactive) |  | 56.4 µM (inactive) | > 100 µM (inactive) | > 100 µM (inactive) | 64.1 µM (inactive) | 63.8 µM (inactive) | > 100 µM (inactive) | 63 µM (inactive) | 47.3 µM (inactive) | > 100 µM (inactive) | 87.1 µM (inactive) | 88.9 µM (inactive) | > 100 µM (inactive) | 63 µM (inactive) |  | 63 µM (inactive) | > 100 µM (inactive) | 50.6 µM (inactive)
CCOC(=O)/C=C(/C(=O)OCC)n1ccc(N)nc1=O | > 100 µM (inactive) | 61.4 µM (inactive) | 66.1 µM (inactive) | 70.6 µM (inactive) | > 100 µM (inactive) | 62.1 µM (inactive) | > 100 µM (inactive) | > 100 µM (inactive) | > 100 µM (inactive) | 92 µM (inactive) | 23.6 µM (inactive) | > 100 µM (inactive) | > 100 µM (inactive) | > 100 µM (inactive) | > 100 µM (inactive) | > 100 µM (inactive) | 89.1 µM (inactive) | > 100 µM (inactive) | > 100 µM (inactive) | 
COC(=O)CCC1=CCC2(SC)C(=O)Nc3cccc1c32 (stereo not given) | > 100 µM (inactive) | > 100 µM (inactive) | > 100 µM (inactive) | > 100 µM (inactive) | > 100 µM (inactive) | > 100 µM (inactive) |  | > 100 µM (inactive) | > 100 µM (inactive) | > 100 µM (inactive) | > 100 µM (inactive) | > 100 µM (inactive) | > 100 µM (inactive) | > 100 µM (inactive) | > 100 µM (inactive) | > 100 µM (inactive) | > 100 µM (inactive) | > 100 µM (inactive) | > 100 µM (inactive) | 
CC(C)[C@H](C)/C=C/[C@@H](C)C1CC[C@H]2[C@@]34C=C[C@]5(C[C@@H](O)CC[C@]5(C)[C@H]3CC[C@]12C)OO4 (stereo not given in full) | 37.4 µM (inactive) | 26.9 µM (inactive) | 31 µM (inactive) | 17.2 µM (inactive) | > 100 µM (inactive) | 23.3 µM (inactive) |  | 25.5 µM (inactive) | 29.6 µM (inactive) | 28.6 µM (inactive) |  | 19.1 µM (inactive) | 20.8 µM (inactive) | 32.7 µM (inactive) | 29.6 µM (inactive) | 54.8 µM (inactive) |  | 42 µM (inactive) | > 100 µM (inactive) | 44.5 µM (inactive)
COc1ccc(N[S+]([O-])c2c(C)cc(C)cc2C)cc1 (stereo not given) | 43.7 µM (inactive) | 1.79 µM (inactive) | > 100 µM (inactive) | 33 µM (inactive) | 72.1 µM (inactive) | 46.1 µM (inactive) | 42.1 µM (inactive) | 80.2 µM (inactive) | 21.2 µM (inactive) | 40.1 µM (inactive) | 19.1 µM (inactive) | 49.8 µM (inactive) | 72.1 µM (inactive) | > 100 µM (inactive) | 19.9 µM (inactive) |  | 35.7 µM (inactive) | > 100 µM (inactive) | 70.1 µM (inactive) | 
OCCSCc1cc2c(O)c(c1)Cc1cc(CSCCO)cc(c1O)Cc1cc(CSCCO)cc(c1O)Cc1cc(CSCCO)cc(c1O)C2 | 3.19 µM (inactive) | 3.3 µM (inactive) | 2.68 µM (inactive) | 4.04 µM (inactive) | 5.01 µM (inactive) | 2.88 µM (inactive) | 7.28 µM (inactive) | 2.54 µM (inactive) | 2.83 µM (inactive) | 3.35 µM (inactive) | 2.18 µM (inactive) | 22.2 µM (inactive) | 5.09 µM (inactive) | 5.02 µM (inactive) | 4.02 µM (inactive) | 8.47 µM (inactive) |  | 4.8 µM (inactive) | 4.23 µM (inactive) | 4.58 µM (inactive)
CN(C)/C=N/c1c2ccccc2nc2ccccc12 | 5.02 µM (inactive) | 3.06 µM (inactive) | 2.48 µM (inactive) | 3.65 µM (inactive) | 8.22 µM (inactive) | 3.06 µM (inactive) | 4.47 µM (inactive) | 5.77 µM (inactive) | 4.21 µM (inactive) | 2.59 µM (inactive) | 2.01 µM (inactive) | 10.6 µM (inactive) | 3.92 µM (inactive) | 5.7 µM (inactive) | 2.78 µM (inactive) | 5.64 µM (inactive) |  | 7.16 µM (inactive) | 2.3 µM (inactive) | 4.34 µM (inactive)
O=c1cc(NNc2cccc(F)c2)[nH]c(=S)[nH]1 | > 100 µM (inactive) | > 100 µM (inactive) | 77.1 µM (inactive) | 71.9 µM (inactive) | > 100 µM (inactive) | > 100 µM (inactive) | 61.4 µM (inactive) | > 100 µM (inactive) | > 100 µM (inactive) |  |  | > 100 µM (inactive) | > 100 µM (inactive) | > 100 µM (inactive) | > 100 µM (inactive) |  | > 100 µM (inactive) | > 100 µM (inactive) | > 100 µM (inactive) | 
CC1=NNC(=O)C1C(CC(=O)c1c[nH]c2ccccc12)C(=O)O (stereo not given) | > 100 µM (inactive) | > 100 µM (inactive) | 64.7 µM (inactive) | 74.5 µM (inactive) | > 100 µM (inactive) | > 100 µM (inactive) | 36.1 µM (inactive) | > 100 µM (inactive) | 68.5 µM (inactive) | 49 µM (inactive) | 72.1 µM (inactive) | > 100 µM (inactive) | > 100 µM (inactive) | > 100 µM (inactive) | > 100 µM (inactive) | > 100 µM (inactive) |  | > 100 µM (inactive) | > 100 µM (inactive) | > 100 µM (inactive)
c1ccc2c(c1)SCCCS2 |  | > 100 µM (inactive) | > 100 µM (inactive) | > 100 µM (inactive) | > 100 µM (inactive) | > 100 µM (inactive) | > 100 µM (inactive) | > 100 µM (inactive) | > 100 µM (inactive) | > 100 µM (inactive) | > 100 µM (inactive) | > 100 µM (inactive) | > 100 µM (inactive) | > 100 µM (inactive) | > 100 µM (inactive) | > 100 µM (inactive) | > 100 µM (inactive) | > 100 µM (inactive) | > 100 µM (inactive) | 
Nc1ncnc2c1ncc(=O)n2C1CC(O)C(CO)O1 (stereo not given) | > 100 µM (inactive) | > 100 µM (inactive) | > 100 µM (inactive) |  | > 100 µM (inactive) | > 100 µM (inactive) | > 100 µM (inactive) | > 100 µM (inactive) | > 100 µM (inactive) | > 100 µM (inactive) | > 100 µM (inactive) | > 100 µM (inactive) | > 100 µM (inactive) | 65.6 µM (inactive) | > 100 µM (inactive) | > 100 µM (inactive) | > 100 µM (inactive) | > 100 µM (inactive) | > 100 µM (inactive) | 
CCOc1cc2c(cc1O)C(=O)C[C@@H]1[C@@H]2CC[C@]2(C)[C@@H](O)CC[C@@H]12 | 0.168 µM (active) | 0.15 µM (active) | 20.5 µM (inactive) | 0.185 µM (active) | 0.213 µM (active) | 6.87 µM (inactive) | 0.0362 µM (active) | 0.525 µM (active) | 0.0197 µM (active) | 0.172 µM (active) | 0.0508 µM (active) | 0.0955 µM (active) | 0.321 µM (active) | 0.158 µM (active) | 0.155 µM (active) | 0.463 µM (active) |  | > 13.4 µM (inactive) | 1.21 µM (inactive) | 1.59 µM (inactive)
N#CSc1ccc(S(N)(=O)=O)cc1 | 29.6 µM (inactive) | > 100 µM (inactive) | 71.1 µM (inactive) | 14.3 µM (inactive) | > 100 µM (inactive) | 82 µM (inactive) | 35.2 µM (inactive) | 44.6 µM (inactive) | 33.3 µM (inactive) | 1 µM (active) | 10.7 µM (inactive) | > 100 µM (inactive) | 44.8 µM (inactive) | > 100 µM (inactive) | 25.1 µM (inactive) | > 100 µM (inactive) |  | 75.5 µM (inactive) | > 100 µM (inactive) | 26.1 µM (inactive)

— ChEMBL document CHEMBL1201862, “PubChem BioAssay data set” (2004)
